# Numbers after ± are expanded uncertainties.
# Conditions: Liquid, Ebulliometric method (Recirculating still)
compound,measurement,setting,value
Nc1ccccc1 [aniline],vapor or sublimation pressure,450.25 K,85 ± 1 kPa
CCCCO [butan-1-ol],vapor or sublimation pressure,385.75 K,85 ± 1 kPa
CCCCCCC [heptane],vapor or sublimation pressure,365.65 K,85 ± 1 kPa
CO [methanol],vapor or sublimation pressure,333.15 K,85 ± 1 kPa

# Reference: the NIST ThermoML archive (doi:10.1021/acs.jced.7b00766)
